The test system of one series is Escherichia coli. Put plainly: Antibacterial activity against Escherichia coli ATCC 25922 assessed as bacterial growth inhibition incubated for 20 hrs by broth microdilution method. It counts as functional. A general note: In broth dilution the organism is exposed to a series of concentrations in liquid medium.
Series [1] relates to Acinetobacter baumannii. As to the kind of experiment: Antimicrobial activity against Acinetobacter baumannii ATCC 19606 assessed as bacterial growth inhibition incubated for 20 hrs by broth microdilution method. Type of series: functional.
Series [2] relates to Acinetobacter baumannii. Put plainly: Antimicrobial activity against colistin resistant Acinetobacter baumannii ATCC 3658/17 assessed as bacterial growth inhibition incubated for 20 hrs by broth microdilution method. It counts as functional.
In series [3] the test system is Pseudomonas aeruginosa. As to the kind of experiment: Antimicrobial activity against Pseudomonas aeruginosa PAO1 assessed as bacterial growth inhibition incubated for 20 hrs by broth microdilution method. It counts as functional.
A short description of series [4]: Hemolytic activity in human RBC at 400 ug/ml after 1 hr. It counts as toxicity, cell-based, Erythrocyte. To be noted: red blood cells (erythrocytes), at 400 µg/mL, read-out: Activity.
In series [5] the test system is Pseudomonas aeruginosa. Put plainly: Antimicrobial activity against colistin resistant Pseudomonas aeruginosa 7197/19 assessed as bacterial growth inhibition incubated for 20 hrs by broth microdilution method. It counts as functional.

Molecules are shown by their SMILES. Values after ≈ are worked out from the molar mass of the structure shown. Positions of bridges follow the written chain, without caps; N, C: chain ends. Non-standard residues stand in square brackets, D forms with d. Residues, ends and D or L forms follow the SMILES beside them. *: point of attachment. Benzoyl(4-Ph) = O=C(c1ccc(-c2ccccc2)cc1)*; dPhe(3-F) = N[C@H](Cc1cccc(F)c1)C(=O)O; dPhe(4-F) = N[C@H](Cc1ccc(F)cc1)C(=O)O; d(hhPhe) = N[C@H](CCCc1ccccc1)C(=O)O; dPhe(2-F) = N[C@H](Cc1ccccc1F)C(=O)O; hLeu = CC(C)CC[C@H](N)C(=O)O; Octanoyl = CCCCCCCC(=O)*; Dab = NCC[C@H](N)C(=O)O Bounds are passed on as bounds.

As a reminder, the MIC is the lowest concentration that inhibits growth of the organism.

Consider `CCCCCCCC(=O)N[C@@H](CCN)C(=O)N[C@H](C(=O)N[C@@H](CCN)C(=O)N[C@H]1CCNC(=O)[C@H]([C@@H](C)O)NC(=O)[C@H](CCN)NC(=O)[C@H](CCN)NC(=O)[C@H](CC(C)C)NC(=O)[C@@H](Cc2ccccc2F)NC(=O)[C@H](CCN)NC1=O)[C@@H](C)O` (Octanoyl-[Dab]T[Dab][Dab][Dab][dPhe(2-F)]L[Dab][Dab]T; lactam 4-C) [listing 1 of 2 here], for which the results for the MIC with Escherichia coli, in the series on Acinetobacter baumannii [1] and with Acinetobacter baumannii [2] were 0.123 µg/mL (≈ 0.102 µM), 0.06 µg/mL (≈ 0.0497 µM) and 0.5 µg/mL (≈ 0.414 µM), respectively.
Turning to `CCCCCCCC(=O)N[C@@H](CCN)C(=O)N[C@H](C(=O)N[C@@H](CCN)C(=O)N[C@H]1CCNC(=O)[C@H]([C@@H](C)O)NC(=O)[C@H](CCN)NC(=O)[C@H](CCN)NC(=O)[C@H](CC(C)C)NC(=O)[C@@H](Cc2cccc(F)c2)NC(=O)[C@H](CCN)NC1=O)[C@@H](C)O` (Octanoyl-[Dab]T[Dab][Dab][Dab][dPhe(3-F)]L[Dab][Dab]T; lactam 4-C), the results for the minimal inhibitory concentration (MIC) in the series with Pseudomonas aeruginosa [3], in the series with Acinetobacter baumannii [1] and in the series on Acinetobacter baumannii [2] were 0.25 µg/mL (≈ 0.207 µM), 0.25 µg/mL (≈ 0.207 µM) and 4 µg/mL (≈ 3.31 µM), respectively.
On to `CCCCCCCC(=O)N[C@@H](CCN)C(=O)N[C@H](C(=O)N[C@@H](CCN)C(=O)N[C@H]1CCNC(=O)[C@H]([C@@H](C)O)NC(=O)[C@H](CCN)NC(=O)[C@H](CCN)NC(=O)[C@H](CC(C)C)NC(=O)[C@@H](Cc2ccc(F)cc2)NC(=O)[C@H](CCN)NC1=O)[C@@H](C)O` (Octanoyl-[Dab]T[Dab][Dab][Dab][dPhe(4-F)]L[Dab][Dab]T; lactam 4-C), for which, in series [4], the hemolysis at 1 h, 400 ug/ml was less than 10%.
On the same count and under the same terms, to `CCCCCCCC(=O)N[C@@H](CCN)C(=O)N[C@H](C(=O)N[C@@H](CCN)C(=O)N[C@H]1CCNC(=O)[C@H]([C@@H](C)O)NC(=O)[C@H](CCN)NC(=O)[C@H](CCN)NC(=O)[C@H](CCCc2ccccc2)NC(=O)[C@@H](Cc2ccccc2)NC(=O)[C@H](CCN)NC1=O)[C@@H](C)O` belongs less than 10%.
Still for that read-out and setting: to `CC[C@H](C)[C@@H]1NC(=O)[C@@H](CC(C)C)NC(=O)[C@H](CCN)NC(=O)[C@@H](NC(=O)[C@@H](CO)NC(=O)[C@@H](NC(=O)[C@H](CCN)NC(=O)c2ccc(-c3ccccc3)cc2)[C@@H](C)O)CCNC(=O)[C@H](CC(C)C)NC(=O)[C@H](CCN)NC(=O)[C@H](CCN)NC1=O` ({Benzoyl(4-Ph)}-[Dab]T[dS][Dab][Dab][dL]I[Dab][Dab]L; lactam 4-C) belongs less than 10%.
Consider `CC(=O)N[C@H](Cc1ccc(F)cc1)C(=O)N[C@@H](CCN)C(=O)N[C@H](C(=O)N[C@@H](CCN)C(=O)N[C@H]1CCNC(=O)[C@H]([C@@H](C)O)NC(=O)[C@H](CCN)NC(=O)[C@H](CCN)NC(=O)[C@H](CC(C)C)NC(=O)[C@@H](Cc2ccccc2)NC(=O)[C@@H](CCN)NC1=O)[C@H](C)O`, for which the minimal inhibitory concentration (MIC) in the series with Escherichia coli is 0.25 µg/mL (≈ 0.197 µM); in the series with Acinetobacter baumannii [1], 2 µg/mL (≈ 1.57 µM); in the series on Acinetobacter baumannii [2], 16 µg/mL (≈ 12.6 µM). For the same compound, in series [4], the hemolysis at 1 h, 400 ug/ml was less than 10%.
With `CCCCCCCC(=O)N[C@@H](CCN)C(=O)N[C@H](C(=O)N[C@@H](CCN)C(=O)N[C@H]1CCNC(=O)[C@H]([C@@H](C)O)NC(=O)[C@H](CCN)NC(=O)[C@H](CCN)NC(=O)[C@H](CCC(C)C)NC(=O)[C@@H](Cc2ccccc2)NC(=O)[C@H](CCN)NC1=O)[C@@H](C)O` (Octanoyl-[Dab]T[Dab][Dab][Dab][dF][hLeu][Dab][Dab]T; lactam 4-C), the hemolysis at 1 h, 400 ug/ml in series [4] is less than 10%.
Still for that read-out and setting: to `CCCCCCCC(=O)N[C@@H](CCN)C(=O)N[C@H](C(=O)N[C@@H](CCN)C(=O)N[C@H]1CCNC(=O)[C@H]([C@@H](C)O)NC(=O)[C@H](CCN)NC(=O)[C@H](CCN)NC(=O)[C@H](CC(C)C)NC(=O)[C@@H](Cc2ccccc2F)NC(=O)[C@H](CCN)NC1=O)[C@@H](C)O` (Octanoyl-[Dab]T[Dab][Dab][Dab][dPhe(2-F)]L[Dab][Dab]T; lactam 4-C) [listing 2 of 2 here] belongs less than 10%.
Turning to `CCCCCCCC(=O)N[C@@H](CCN)C(=O)N[C@H](C(=O)N[C@@H](CCN)C(=O)N[C@H]1CCNC(=O)[C@H]([C@@H](C)O)NC(=O)[C@H](CCN)NC(=O)[C@H](CCN)NC(=O)[C@H](CC(C)C)NC(=O)[C@@H](CCCc2ccccc2)NC(=O)[C@H](CCN)NC1=O)[C@@H](C)O` (Octanoyl-[Dab]T[Dab][Dab][Dab][d(hhPhe)]L[Dab][Dab]T; lactam 4-C), the minimum inhibitory concentration (MIC) is less than 0.125 µg/mL in the series with Escherichia coli, 0.5 µg/mL (≈ 0.411 µM) in the series with Pseudomonas aeruginosa [5] and less than 0.125 µg/mL with Acinetobacter baumannii [1].
Consider `CCCCCCCC(=O)N[C@@H](CCN)C(=O)N[C@H](C(=O)N[C@@H](CCN)C(=O)N[C@H]1CCNC(=O)[C@H]([C@@H](C)O)NC(=O)[C@H](CCN)NC(=O)[C@H](CCN)NC(=O)[C@H](Cc2ccccc2)NC(=O)[C@@H](CCCc2ccccc2)NC(=O)[C@H](CCN)NC1=O)[C@@H](C)O` (Octanoyl-[Dab]T[Dab][Dab][Dab][d(hhPhe)]F[Dab][Dab]T; lactam 4-C), for which the hemolysis at 1 h, 400 ug/ml in series [4] is less than 10%.

For the origin of these results see ChEMBL document CHEMBL5537158, “Polymyxins with Potent Antibacterial Activity against Colistin-Resistant Pathogens: Fine-Tuning Hydrophobicity with Unnatural Amino Acids” (J Med Chem, 2024).
